Assay [1] has as its target T1, FAAH in rat brain membranes (Rattus norvegicus, UniProt P97612).
T1 sequence (P97612 1-579): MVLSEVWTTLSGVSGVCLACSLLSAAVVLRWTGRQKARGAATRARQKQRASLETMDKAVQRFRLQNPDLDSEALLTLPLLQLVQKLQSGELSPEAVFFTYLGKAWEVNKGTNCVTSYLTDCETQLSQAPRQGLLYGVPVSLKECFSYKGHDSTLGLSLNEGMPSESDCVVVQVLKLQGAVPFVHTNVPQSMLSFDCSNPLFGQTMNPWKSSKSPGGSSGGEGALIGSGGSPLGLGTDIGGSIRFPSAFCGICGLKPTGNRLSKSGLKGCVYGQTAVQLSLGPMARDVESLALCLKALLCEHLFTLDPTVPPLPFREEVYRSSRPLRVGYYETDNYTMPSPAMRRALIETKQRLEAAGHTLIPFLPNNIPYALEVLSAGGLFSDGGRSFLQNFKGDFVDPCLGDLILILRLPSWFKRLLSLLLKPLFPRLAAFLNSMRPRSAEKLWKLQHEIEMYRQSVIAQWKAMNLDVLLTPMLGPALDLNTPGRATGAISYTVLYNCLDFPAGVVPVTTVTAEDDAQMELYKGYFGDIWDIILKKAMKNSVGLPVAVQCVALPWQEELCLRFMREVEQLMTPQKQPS
The note with it: read-out: IC50 FAAH with 20 min Pre-incubation; cited from earlier work.

Assay [2] has as its target T2, BuChE from human serum (hBuChE) (Homo sapiens, UniProt P06276).
T2 construct: commercial stock solution of BuChE from human serum (Sigma); purchased Sigma; host or cells: human serum
Nature of the assay: Inhibition of human BuChE, Ellman's method. In kind it is biochemical. The note with it: for IC50: BuChE from human serum. Here is the method: (§1) The capacity of 2–7 to inhibit human ChE activity was assessed using the Ellman’s method. Initial rate assays were performed at 37 °C with a V-530 double beam spectrophotometer (Jasco Corporation, Cremella (LC), Italy city, state/prov abbrev if USA/Canada, country). […] AChE stock solution was prepared by dissolving human recombinant AChE lyophilized powder (Sigma-Aldrich, Merck group, Milan, Italy) in 0.1 M phosphate buffer at pH 8.0 containing 0.1% Triton X-100. Stock solution of BuChE was prepared by diluting commercial stock solution of BuChE from human serum (Sigma) in an aqueous solution of gelatin (0.2%) in order to have a final activity comprised between 0.11–0.15 ΔAbs/min. Stock solutions of inhibitors (1–2 mM) were prepared in methanol and diluted in methanol. […] Incubation times were: 60 min for 2 and 90 min for 3 and 4 on hAChE assay, and 45 min for 2 and 60 min for 3 and 4 on hBuChE assay, as assessed on the preliminary determination of the carbamoylation rate. Blank solutions containing all components except the enzyme were prepared in order to account for the non-enzymatic hydrolysis of the substrate. The reaction rates obtained in the absence and presence of inhibitor were compared and the percent inhibition due to the presence of inhibitor was calculated. […] Two independent experiments were performed for the determination of each IC50 value or for the calculation of the % of inhibition where the IC50 value could not be determined because of low inhibitory activity.
On the technique in general: Ellman's reagent forms a yellow product with free thiols.

In assay [3] the target is T3, Aβ42 self-aggregation (Homo sapiens, UniProt P05067).
T3 construct: pretreated Aβ42 samples (Bachem AG, Bubendorf, Switzerland); purchased Bachem AG, Bubendorf, Switzerland
As to the kind of experiment: Inhibition of Aβ42 self-aggregation, thioflavin T fluorescence. It is filed as biochemical. Particulars: read-out: % Inhibition Aβ42 self-aggregation (±SEM). The procedure: Finally, in a multitarget perspective, the compounds were tested to evaluate their Aβ anti-aggregation properties.
As reported in a previously published protocol, 1,1,1,3,3,3-hexafluoro, 2-propanol pretreated Aβ42 samples (Bachem AG, Bubendorf, Switzerland) were solubilized with a CH3CN/0.3 mM Na2CO3/250 mM NaOH (48.4:48.4:3.2) mixture. Experiments were performed by incubating the peptide in 10 mM phosphate buffer (pH = 8.0) containing 10 mM NaCl, at 30 °C for 24 h (final Aβ concentration = 50 μM) with and without inhibitor (50 μM, Aβ/inhibitor = 1/1). Blanks containing the tested inhibitors were also prepared and tested. To quantify amyloid fibrils formation, the thioflavin T (ThT) fluorescence method was used. After incubation, samples were diluted to a final volume of 2.0 mL with 50 mM glycine-NaOH buffer (pH 8.5) containing 1.5 μM ThT. A 300 s-time scan of fluorescence intensity was carried out (λexc = 446 nm; λem = 490 nm, FP-6200 fluorometer, Jasco Europe), and values at plateau were averaged after subtracting the background fluorescence of 1.5 μM ThT solution. The fluorescence intensities were compared and the percent inhibition due to the presence of the inhibitor.

Assay [4] deals with T1, FAAH in rat brain membranes. As to the kind of experiment: FAAH assay, [14C]-AEA hydrolysis in rat brain membranes.
Assay [5] concerns the target T4, human recombinant CB1 receptor (Homo sapiens, UniProt P21554).
T4 construct: purchased Perkin Elmer, Milan, Italy; host or cells: HEK-293
Nature of the assay: Competition binding assay with [3H]-CP-55,940 at CB1. Particulars: for Ki: [3H]-CP55940 displacement, HEK-293 membranes, read-out: Ki on CB1 (m ± sd); for % Displacement at max tested on CB1 (m ± sd): max tested concentration 10 µM, [3H]-CP55940. The procedure: (§2) Competition binding assay for CB1 and CB2 receptors was performed as previously reported. […] All compounds were tested following the procedure described by the manufacturer (Perkin Elmer, Milan, Italy).

Assay [6] addresses T5, human recombinant CB2 receptor (Homo sapiens, UniProt P34972).
T5 construct: purchased Perkin Elmer, Milan, Italy; host or cells: HEK-293
As to the kind of experiment: Competition binding assay with [3H]-CP-55,940 at CB2. Particulars: for Ki: [3H]-CP55940 displacement, HEK-293 membranes, read-out: Ki on CB2 (m ± sd); for % Displacement at max tested on CB2 (m ± sd): max tested concentration 10 µM, [3H]-CP55940. Here is the method: as §2

Assay [7] deals with T6, human recombinant AChE (hAChE) (Homo sapiens, UniProt P22303).
T6 construct: purchased Sigma-Aldrich, Merck group, Milan, Italy
Nature of the assay: Inhibition of human AChE, Ellman's method. In kind it is biochemical. Particulars: for inhibition at 40 µM: [I] = 40 µM, read-out: hAChE % Inhibition (±SEM); for IC50: human recombinant AChE. Here is the method: as §1

In assay [8] the target is T7, hAChE (Homo sapiens, UniProt P22303).
T7 construct: purchased Sigma-Aldrich, Merck group, Milan, Italy
Nature of the assay: Stopped time assay of hAChE carbamoylation. The note with it: determined at IC50 value. It is filed as biochemical.
Protocol: Given these premises, we initially investigated the time-dependent ChEs inhibition by 2–4 by evaluating the time required to achieve a plateau in the inhibition plot.
A stopped time assay was performed in order to define the time required for enzyme carbamoylation. In detail, residual enzyme activity upon selected incubation times was assessed by following the same protocol described in section “Determination of the inhibitory potency towards human AChE and BuChE”. […] The mixture was incubated at 37 °C for given times (from 5 to 90 min) before the addition of the substrate (AChT or BChT, respectively) and the determination of residual enzyme activity by Ellman’s method. A parallel control, with no inhibitor, allowed to adjust activities measured at various time.

[9] abbreviates: incubation time 60 min, read-out: IC50 hBuChE (±SEM).
Where [10] appears, read: IC50 FAAH (m ± sd), rat brain membranes, AEA hydrolysis, without pre-incubation.
[11] abbreviates: IC50 FAAH with 20 min Pre-incubation, rat brain membranes, 20 min pre-incubation at 37 °C.
The mark [12] stands for this setting: incubation 20 min, read-out: hBuChE IC50 (±SEM).

Like-named read-outs stand apart in the source and are kept apart here.

T2 sequence (P06276 29-602): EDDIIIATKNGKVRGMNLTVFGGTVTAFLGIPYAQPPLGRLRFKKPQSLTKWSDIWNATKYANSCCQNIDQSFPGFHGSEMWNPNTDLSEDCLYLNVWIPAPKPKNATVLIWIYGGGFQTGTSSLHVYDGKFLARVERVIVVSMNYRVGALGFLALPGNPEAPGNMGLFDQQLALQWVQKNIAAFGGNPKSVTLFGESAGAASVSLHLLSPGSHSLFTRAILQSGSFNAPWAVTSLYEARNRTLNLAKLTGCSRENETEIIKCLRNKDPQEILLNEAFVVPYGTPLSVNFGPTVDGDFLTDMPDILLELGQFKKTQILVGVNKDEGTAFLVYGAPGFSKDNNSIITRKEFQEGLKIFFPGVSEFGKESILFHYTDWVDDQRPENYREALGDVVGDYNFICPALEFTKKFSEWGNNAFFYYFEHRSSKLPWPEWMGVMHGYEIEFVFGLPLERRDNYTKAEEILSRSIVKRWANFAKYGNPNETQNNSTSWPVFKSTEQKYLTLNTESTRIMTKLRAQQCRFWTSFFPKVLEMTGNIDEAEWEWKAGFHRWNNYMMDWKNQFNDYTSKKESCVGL
T6 sequence (P22303 32-614): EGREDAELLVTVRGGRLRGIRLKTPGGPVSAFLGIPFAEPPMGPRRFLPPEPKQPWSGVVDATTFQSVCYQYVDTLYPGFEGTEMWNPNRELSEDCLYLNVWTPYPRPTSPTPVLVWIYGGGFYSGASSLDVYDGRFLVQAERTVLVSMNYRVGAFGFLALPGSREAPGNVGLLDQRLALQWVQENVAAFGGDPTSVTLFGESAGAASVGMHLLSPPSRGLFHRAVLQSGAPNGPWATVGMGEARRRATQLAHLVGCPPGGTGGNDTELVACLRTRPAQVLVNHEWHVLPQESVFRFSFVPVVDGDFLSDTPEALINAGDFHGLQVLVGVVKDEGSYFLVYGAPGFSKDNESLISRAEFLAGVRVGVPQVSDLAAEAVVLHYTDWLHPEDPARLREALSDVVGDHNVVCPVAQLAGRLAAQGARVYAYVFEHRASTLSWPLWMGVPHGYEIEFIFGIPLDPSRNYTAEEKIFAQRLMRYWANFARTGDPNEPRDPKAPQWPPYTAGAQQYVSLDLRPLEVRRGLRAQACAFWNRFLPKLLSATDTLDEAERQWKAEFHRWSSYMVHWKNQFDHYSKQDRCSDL
T4 sequence (P21554 whole entry): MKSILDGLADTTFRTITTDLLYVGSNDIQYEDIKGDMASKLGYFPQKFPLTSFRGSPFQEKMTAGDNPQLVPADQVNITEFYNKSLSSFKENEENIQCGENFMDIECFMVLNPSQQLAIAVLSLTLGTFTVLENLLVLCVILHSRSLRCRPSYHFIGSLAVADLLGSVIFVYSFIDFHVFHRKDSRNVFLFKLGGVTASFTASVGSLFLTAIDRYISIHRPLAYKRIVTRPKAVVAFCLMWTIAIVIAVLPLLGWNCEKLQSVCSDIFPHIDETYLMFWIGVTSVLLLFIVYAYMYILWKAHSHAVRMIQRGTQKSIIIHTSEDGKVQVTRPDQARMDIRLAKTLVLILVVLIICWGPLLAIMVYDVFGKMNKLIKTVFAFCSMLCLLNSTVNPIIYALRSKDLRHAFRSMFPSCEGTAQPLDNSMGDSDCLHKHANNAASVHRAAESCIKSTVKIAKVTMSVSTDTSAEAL
T3 sequence (P05067 672-713 limits assumed): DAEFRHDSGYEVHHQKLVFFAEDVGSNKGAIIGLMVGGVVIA
T5 sequence (P34972 whole entry): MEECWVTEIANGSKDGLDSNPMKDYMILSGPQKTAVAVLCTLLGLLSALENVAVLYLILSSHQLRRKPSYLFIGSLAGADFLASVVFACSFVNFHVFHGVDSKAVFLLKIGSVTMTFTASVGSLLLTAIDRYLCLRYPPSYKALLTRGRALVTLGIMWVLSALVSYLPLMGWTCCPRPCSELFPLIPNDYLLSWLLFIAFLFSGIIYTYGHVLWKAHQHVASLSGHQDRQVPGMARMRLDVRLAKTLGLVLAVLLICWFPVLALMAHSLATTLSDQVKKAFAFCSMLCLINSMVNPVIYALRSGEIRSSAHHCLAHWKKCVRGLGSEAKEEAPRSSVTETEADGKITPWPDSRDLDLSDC
T7 sequence (P22303 32-614): as the sequence (P22303 32-614) above

By IC50 is commonly meant the concentration at which inhibition is half-maximal. On to `CCCCCCCNC(=O)Oc1cccc(CN(C)CCCOc2ccc3ccc(=O)oc3c2)c1` [Compound 1], for which the IC50 in assay [1] was 29 ± 1 nM.

As a reminder, the inhibition is the change of the read-out against control, counted positive when it falls. On to `CN(CCCOc1ccc2ccc(=O)oc2c1)Cc1cccc(OC(=O)Nc2ccc3ccccc3c2)c1` [Compound 4, 3-((Methyl(3-((2-oxo-2H-chromen-7-yl)oxy)propyl)amino)methyl)phenyl naphthalen-2-ylcarbamate], for which the figures for the IC50 in assay [2] (setting [9]), in assay [4] (setting [10]) and in assay [4] (setting [11]) were 0.002 ± 0.0002 µM, 1.58 ± 0.26 µM and 0.63 ± 0.08 µM, respectively. In addition, the “difference in IC50 values hAChE vs hBuChE (selectivity)” value in assay [2] (hBuChE over hAChE) was determined as 100 fold. Further, the inhibition at 50 µM in assay [3] was determined as 13.9 ± 3.8%.

What is called Ki is a measure of affinity in units of concentration, obtained from inhibition or displacement. Regarding `CN(CCCOc1ccc2ccc(=O)oc2c1)Cc1cccc(OCC(=O)NC2CCCC2)c1` [Compound 6, N-Cyclopentyl-2-(3-((methyl(3-((2-oxo-2H-chromen-7yl)oxy)propyl)amino)methyl)phenoxy)-acetamide], the IC50 was 11.6 ± 0.8 µM in assay [2] (setting [12]); 59400 nM in assay [7] (incubation 20 min, read-out: IC50 hAChE); over 1000 µM in assay [4]. Also, the Ki in assay [5] and in assay [6] was over 10 µM each time. Further, the “% Displacement at max tested on CB1 (m ± sd)” value in assay [5] is on record as 10 (35.75 ± 0.65) %. Moreover, in assay [3], the inhibition at 50 µM stood at 20.3 ± 1.9%. Moreover, the “% Displacement at max tested on CB2 (m ± sd)” value in assay [6] is given as 10 (48.33 ± 1.73) %. The inhibition at 40 µM in assay [7] (incubation 20 min) is 41.7 ± 0.5%.

Regarding `CN(CCCOc1ccc2ccc(=O)oc2c1)Cc1cccc(OCC(=O)NC2CCCCC2)c1` [Compound 7, N-Cyclohexyl-2-(3-((methyl(3-((2-oxo-2H-chromen-7-yl)oxy)propyl)amino)methyl)phenoxy)-acetamide], the IC50 in assay [2] (setting [12]) was 12.8 ± 2.1 µM; in assay [4], over 1000 µM. Moreover, the Ki in assay [5] and in assay [6] was over 10 µM in each case. Besides, in assay [5], the “% Displacement at max tested on CB1 (m ± sd)” value is listed as 10 (39.62 ± 10.48) %. In assay [3], the inhibition at 50 µM came to 13.5 ± 5%. The “% Displacement at max tested on CB2 (m ± sd)” value in assay [6] is 10 (14.3 ±3.83) %. Further, in assay [7] (incubation 20 min), the inhibition at 40 µM was 34 ± 3.2%.

Turning to `CN(CCCOc1ccc2ccc(=O)oc2c1)Cc1cccc(OC(=O)NC2CCCC2)c1` [Compound 2, 3-((Methyl(3-((2-oxo-2H-chromen-7-yl)oxy)propyl)amino)methyl)phenyl cyclopentylcarbamate], the IC50 in assay [2] (incubation time 45 min, read-out: IC50 hBuChE (±SEM)) was 0.00842 ± 0.00013 µM; in assay [7] (incubation time 60 min, read-out: IC50 hAChE (±SEM)) it was 521 ± 14 nM; in assay [4] (setting [10]) it was 6.09 ± 1.55 µM; in assay [4] (setting [11]) it was 2.53 ± 0.55 µM. Besides, the inhibition at 50 µM in assay [3] amounted to 22.9 ± 1.3%. Further, the “pseudo-first order kobs of hAChE carbamoylation” value in assay [8] was determined as 0.038 min⁻¹.

As to `CN(CCCOc1ccc2ccc(=O)oc2c1)Cc1cccc(OC(=O)NC2CCCCC2)c1` [Compound 3, 3-((Methyl(3-((2-oxo-2H-chromen-7-yl)oxy)propyl)amino)methyl)phenyl cyclohexylcarbamate], the IC50 in assay [2] (setting [9]) was 0.0349 ± 0.0042 µM; in assay [7] (incubation time 90 min, read-out: IC50 hAChE (±SEM)), 104 ± 21 nM; in assay [4] (setting [10]), 2.55 ± 0.33 µM; in assay [4] (setting [11]), 1.33 ± 0.28 µM. Further, the inhibition at 50 µM in assay [3] is 18.9 ± 2.1%.

With `CCCCCCCNC(=O)COc1cccc(CN(C)CCCOc2ccc3ccc(=O)oc3c2)c1` [Compound 5, N-Heptyl-2-(3-((methyl(3-((2-oxo-2H-chromen-7-yl)oxy)propyl)amino)methyl)phenoxy)acetamide], the IC50 in assay [2] (setting [12]) turned out to be 182 ± 28 µM. In addition, in assay [5], the Ki is over 10 µM and the “% Displacement at max tested on CB1 (m ± sd)” value was 10 (35.57 ± 0.43) %. In assay [6], the Ki was over 10 µM and the “% Displacement at max tested on CB2 (m ± sd)” value is on record as 10 (41.41 ± 0.87) %. In addition, in assay [7] (incubation 20 min), the inhibition at 40 µM is 13.6 ± 5.1%. Moreover, the IC50 in assay [4] was over 1000 µM.

These data come from paper PMC8198714, “New Coumarin Derivatives as Cholinergic and Cannabinoid System Modulators” (Molecules, 2021).
